Values joined by “and” are separate entries in the source; they are usually repeats but may differ in a detail not shown here. Equal values may be shown once.
What was measured:
[1] = system: GL261 murine brain tumor cells; assay: Clonogenic survival after single doses of 250 kVp x-rays; format: cell-based; settings: for α (Gy^-1) / β (Gy^-2): LQ; for SF2: survival at 2 Gy
Description: To irradiate 25 cm^2 flasks, an x-ray machine was used and (Philips 250 kVp Therapeutic X-ray Machine, Einhoven, Germany) operated at 250 kVp and 15 mA with added filtration of 0.4 mm Thoreaus filter. The target to source distance was approximately 30 cm. Dose rates were measured using an R-meter (Victoreen R-meter, Cleveland, OH), and converted to absorbed (Gy) doses using appropriate temperature, pressure, and R to Gy conversion factors. The dose rate was 1 Gy per min. Flasks were irradiated at ambient temperature.
Experimental cells and FCs were added to treatment flasks before irradiation, and were then allowed to attach to the surfaces of the flask and incubated at 37°C for 1 hour. After incubation the flasks were irradiated using the 250 kVp x-ray source.
For […] analyses, survival data lying at or below 36.8% survival were analyzed by using the log fractional survival (log FxS) versus dose (D). Data were fit using linear regression analysis (SigmaPlot, V. 10, Systat Corp., Point Richmond, CA) to obtain the Y-intercept (or n, the extrapolation number) and the slope (1/D0), and their 95% confidence limits. (See Goldstein, A. In: Biostatistics, New York, The MacMillan Co., 1964, p. 140-146).. The Do value (Gy) is defined as the inverse of the slope, and the corrected Dq value (Gy) was then defined using the relationship: Dq(Gy) = ln n x D0 (Gy) [formula] The 95% confidence limits on Dq were defined using error propagation. (See Chase, et al., In: Principles of Radioisotope Methodology. Minneapolis, MN. Burgess Publ. Co., 1962, p. 68, 87-90).
For LQ analyses, data lying between a fractional survival of 1.00 and 0.05 were used. The fractional survival data at each dose were transformed using the relationship (-In FxS/D) and plotted against dose (D). A regression analysis was performed to yield the LQ equation along with their 95% confidence limit values using a t-table with the appropriate (N-1) degrees of freedom. (See Goldstein, A. In: Biostatistics, New York, The MacMillan Co., 1964, p. 140-146).
To determine the Tetrac modification factor (TMF), the survival at 2 Gy obtained for control cells was divided by the survival at 2 Gy for Tetrac treated cells. The 95% confidence limits on the ratio were determined using error propagation techniques. (See Chase, et al. In: Princiiples of Radioisotope Methodology, Minneapolis, MN, Burgress Publ. Co., 1962, p. 68, 87-90).

GL261 tumor cells = assay: 44°C hyperthermia survival; format: cell-based, murine
Description: Additionally, Tetrac sensitizes GL261 cells in hyperthermic conditions. Graded heat treatment of GL261 tumor cells with 44°C was given, without and with Tetrac. Tetrac increased cell killing as compared to control cells alone, by the equivalent of about 1°C (i.e., 44°C plus Tetrac is the equivalent of 45°C without Tetrac). (See Figure 63).

GL261 cells = assay: Cell multiplicity after Tetrac exposure; format: cell-based, murine; settings: after one hour exposure to Tetrac
Description: Cell multiplicity (CM) was determined from Giemsa stained slides by counting the number of cells per microcolony under 20 X magnification. At least 400 microcolonies were counted.
The length of time that Tetrac biologically affected GL261 cells was also determined. To do this, the multiplicity relationship defined above was utilized. Tetrac was added to cells one hour prior to the determination of the multiplicity. After the exposure of exponentially growing GL261 cells to Tetrac, the Tetrac containing medium was removed from GL261 cells, which contained an unknown residual and fresh medium (without Tetrac) was added. As a function of time (i.e., 0, 1, 2, 3, 4, 6, 8, and 10 hours, and 1-6 days), the cells, containing an unknown residual amount of remaining Tetrac, were then processed for determination of the multiplicity index (i.e. the number of cells per microcolony).

U87MG cells = assay: Colony forming efficiency and flow cytometry; format: cell-based, human; settings: Tetrac for 1 h at 37°C
Description: U87MG cells were seeded at 10^6 cells/100 mm^2 dish and incubated at 37°C for 24 h. Adherent cells were trypsinized and washed once in ambient temperature PBS. Cells were then fixed in 70% ethanol, and stored overnight at 4°C. Cells were prepared for cell cycle analysis by first pelleting the cells (1000 rpm, 7 min, 4°C), and then resuspending the pellet in 1 mL of PBS containing 0.2 mg/mL propidium iodide (Boehringer Mannheim, Indianapolis, IN), with incubation in the dark for 30 min. Cells were then left overnight at 4°C in the dark. Cells were analyzed on a Coulter fluorescence-activated cell sorter (Coulter Electronics, Hialeah, FL). Cells were excited with a single 488 nm argon laser, and the resulting fluorescence was detected using a 585 nm filter. Linear red-orange FL3 data were collected (10,000 events per collection). The distribution of cells within the cell cycle was determined using a Coulter software program.

[2] = Exponential Phase (with Tetrac)
[3] = Unfed plateau Phase (with Tetrac)
[4] = SHMT, Unfed plateau Phase (with Tetrac)

O=C(O)Cc1cc(I)c(Oc2cc(I)c(O)c(I)c2)c(I)c1 [Tetrac, 3,3',5,5'-tetraiodothyroacetic acid]
α (Gy^-1) [1, 2]: 0.930 Gy^-1
β (Gy^-2) [1, 2]: 0.003 Gy^-2
α (Gy^-1) [1, 3]: 1.157 Gy^-1
β (Gy^-2) [1, 3]: 0.066 Gy^-2
D0 (Gy) ([1]; SHMT, Exponential phase (with Tetrac)): 1.08 Gy and 1.08 (0.09). Gy
D0 (Gy) [1, 4]: 0.75 Gy
Dq (Gy) [1, 4]: 0.00 Gy
sensitization of oxic and hypoxic cells ([1]; Tetrac 2µM, graded doses of 250 kVp x-rays (Figure 60)): sensitize both oxic and hypoxic cells equally
survival at 2 Gy ([1]; Tetrac treated cells (non-Tetrac treated 32%)): 13%
increase of the Do value ([1]; exponentially growing cells): 15%
reduction of the Dq value ([1]; exponentially growing cells): 100%
reduction of the extrapolation number ([1]; exponentially growing cells): 93%
reduction of n ([1]; plateau phase cells): 93%
reduction of the Do ([1]; plateau phase cells): 6%
reduction of the Dq ([1]; plateau phase cells): 100%
SF2 [1, 2]: 14.2%
SF2 [1, 3]: 7.62 (6.82 - 8.51) %
increase in cell killing as temperature equivalent (GL261 tumor cells; 44°C plus Tetrac): about 1 °C
sensitization factor (GL261 tumor cells; Tetrac 2uM, 20 minutes at 44°C): 3.8
time for a 50% return of the cell multiplicity factor towards control level (GL261 cells): approximately 2.5 days
time post Tetrac treatment at which decrease in the CM factor was recorded at 50% (GL261 cells): 60 h
G1 (U87MG cells; flow cytometry): 58.2 (± 12.2) %
G2/M (U87MG cells; flow cytometry): 24.8 (± 2.8) %
S (U87MG cells; flow cytometry): 15.4 (± 9.1) %
sub-G1 population (U87MG cells; flow cytometry): 1.5 (± 0.2) %
colony forming efficiency (U87MG cells; mean and 95% confidence limits): 26.0 (± 6.1) %

Source: patent EP2662079A1 (Ordway Research Institute, Inc., priority 2012, dated 2013)
